How the values were obtained:
[1] = target: c-kit mutant D816V (Homo sapiens (Human), UniProt P10721, D816V/DEL694-753); test: c-Kit mutant D816V biochemical assay (AlphaScreen); conditions: c-kit D816V biochemical inhibitory activity
Description: The c-kit mutant D816V (or kinase domain thereof) is an active kinase in AlphaScreen. IC50 values are determined with respect to inhibition of c-Kit mutant D816V kinase activity, where inhibition of phosphorylation of a peptide substrate is measured as a function of compound concentration. Compounds to be tested were dissolved in DMSO to a concentration of 20 mM. These were diluted 30 μl into 120 μl of DMSO (4 mM) and 1 μl was added to an assay plate. These were then serially diluted 1:3 (50 μl to 100 μl DMSO) for a total of 8 points. Plates were prepared such that each kinase reaction is 20 μl in 1× kinase buffer (25 mM HEPES, pH 7.2, 8 mM MgCl2, 2 mM MnCl2, 50 mM NaCl, 0.01% Brij, 1 mM DTT, 0.01% BSA), 5% DMSO and 10 μM ATP. Substrate was 30 nM biotin-(E4Y)10 (EMD Millipore, Cat#12-440). C-kit mutant D816V kinase was at 0.75 ng per sample. After incubation of the kinase reaction for 30 minutes at room temperature, 5 μl of donor beads (Streptavidin coated beads (Perkin Elmer Life Science) final concentration 7.5 μg/ml) in stop buffer (25 mM Hepes pH 7.5, 100 mM EDTA, 0.01% BSA) was added, the sample was mixed and incubated for 20 minutes at room temperature before adding 5 μl of acceptor beads (PY20 coated beads (Perkin Elmer Life Science) final concentration 7.5 ug/ml) in stop buffer. The samples were incubated for 60 minutes at room temperature and the signal per well was read on EnVision reader. Phosphorylated substrate results in binding of the PY20 antibody and association of the donor and acceptor beads such that signal correlates with kinase activity. The signal vs. compound concentration was used to determine the IC50.
Recombinant c-kit mutant D816V (residues 551-934, kinase insertion domain residues 694-753 deleted) with a 6x-histidine N-terminal tag was expressed in E. coli Arctic Express (DE3) RIL (Stratagene). Cells were grown in Terrific Broth (TB) media to an OD600 of 0.6 at 37° C. at which temperature was reduced to 10° C., protein was induced with 1.0 mM IPTG for 18 hours and harvested by centrifugation at 8000×g for 20 minutes. Cells were re-suspended in 0.1M KPO4 pH 8.0, 250 mM NaCl, 10% Glycerol, 0.75% NP-40, 25 mM Imidazole, 5 mM BME with 0.2 mg/ml Lysosyme, 2.0 mM PMSF, 25 μg/ml DNAse I, incubated in ice for 30 minutes and lyzed with a cell disruptor (MicroFluidics). The lysate was clarified by centrifugation at 20,000×g for 2 hours. The protein was captured with Talon resin (Clontech). Contaminating proteins were washed off with 25 mM Tris-HCl pH 8.3, 250 mM NaCl, 15% Glycerol, 1% Triton X-100, and protein eluted using 100 mM EDTA. The protein was further purified using Gel Filtration column 26/600 Superdex 200 (GE) in 50 mM Tris-HCl, pH 8.0, 250 mM NaCl, 15% Glycerol, 5 mM BME. The protein was aliquoted and flash-frozen in liquid Nitrogen.

[2] = tested on: BaF3-FL KIT D816V or BaF3-FL KIT V560G/D816V cell line; test: Cell-based assays of c-Kit mutant kinase activity (cell growth, ATPlite); conditions: at least one of the c-kit cell assays of Example 26
Procedure, shortened: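 BaF3 cells dependent on full-length human KIT (D816V or V560G/D816V) seeded at 1×10^4 cells/well in RPMI with 10% FBS. Eight-point 1:3 dilutions from 10 μM top final (0.2% DMSO), 3 days at 37° C., 5% CO2. ATPlite luminescence gave IC50.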

Chain of c-kit mutant D816V (P10721 other isoform, or with tags, fused parts or gaps D816V/del 694-753): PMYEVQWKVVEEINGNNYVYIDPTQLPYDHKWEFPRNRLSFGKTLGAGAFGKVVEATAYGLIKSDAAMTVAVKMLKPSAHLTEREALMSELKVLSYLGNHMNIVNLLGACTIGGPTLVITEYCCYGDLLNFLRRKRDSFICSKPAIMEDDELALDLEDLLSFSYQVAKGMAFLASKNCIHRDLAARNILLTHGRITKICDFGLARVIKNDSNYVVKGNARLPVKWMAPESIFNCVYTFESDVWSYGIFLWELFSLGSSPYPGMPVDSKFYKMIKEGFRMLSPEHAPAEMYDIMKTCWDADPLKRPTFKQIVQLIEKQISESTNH

Compound | IC50 [1] | IC50 [2]
Cc1n[nH]c(C(=O)Nc2cnc3[nH]c(-c4cnc(C(C)C)nc4)cc3c2)c1C [P-2154, N-[2-(2-isopropylpyrimidin-5-yl)-1H-pyrrolo[2,3-b]pyridin-5-yl]-3,4-dimethyl-1H-pyrazole-5-carboxamide] | 0.0001 to 1 µM | < 10 µM
Cc1n[nH]c(C(=O)Nc2cnc3[nH]c(-c4cnc(C5CC5)nc4)cc3c2)c1C [P-2155, N-[2-(2-cyclopropylpyrimidin-5-yl)-1H-pyrrolo[2,3-b]pyridin-5-yl]-3,4-dimethyl-1H-pyrazole-5-carboxamide] | 0.0001 to 1 µM | < 10 µM
Cc1n[nH]c(C(=O)Nc2cnc3[nH]c(-c4cnc(NC5CC5)nc4)cc3c2)c1C [P-2157, N-[2-[2-(cyclopropylamino)pyrimidin-5-yl]-1H-pyrrolo[2,3-b]pyridin-5-yl]-3,4-dimethyl-1H-pyrazole-5-carboxamide] | 0.0001 to 1 µM | < 10 µM
Cc1n[nH]c(C(=O)Nc2cnc3[nH]c(-c4cnc(N5CCOCC5)nc4)cc3c2)c1C [P-2158, 3,4-dimethyl-N-[2-(2-morpholinopyrimidin-5-yl)-1H-pyrrolo[2,3-b]pyridin-5-yl]-1H-pyrazole-5-carboxamide] | 0.0001 to 1 µM | < 10 µM
CCc1cc(C(=O)Nc2cnc3[nH]c(-c4ccc(F)cc4)cc3c2)[nH]n1 [P-2159, 3-ethyl-N-[2-(4-fluorophenyl)-1H-pyrrolo[2,3-b]pyridin-5-yl]-1H-pyrazole-5-carboxamide] | 0.0001 to 1 µM | < 10 µM
Cc1cc(C#N)ccc1-c1cc2cc(NC(=O)c3[nH]nc(C)c3C)cnc2[nH]1 [P-2161, N-[2-(4-cyano-2-methyl-phenyl)-1H-pyrrolo[2,3-b]pyridin-5-yl]-3,4-dimethyl-1H-pyrazole-5-carboxamide] | 0.0001 to 1 µM | < 10 µM
COc1ccc(-c2cc3cc(NC(=O)c4[nH]nc(C)c4C)cnc3[nH]2)c(C)n1 [P-2169, N-[2-(6-methoxy-2-methyl-3-pyridyl)-1H-pyrrolo[2,3-b]pyridin-5-yl]-3,4-dimethyl-1H-pyrazole-5-carboxamide] | 0.0001 to 1 µM | < 10 µM
O=C(Nc1cnc2[nH]c(-c3ccc(F)cc3)cc2c1)c1cc(C(F)F)n[nH]1 [P-2172, 3-(difluoromethyl)-N-[2-(4-fluorophenyl)-1H-pyrrolo[2,3-b]pyridin-5-yl]-1H-pyrazole-5-carboxamide] | 1 to 10 µM | < 10 µM
Cc1n[nH]c(C(=O)Nc2cnc3[nH]c(-c4ccnc(C(=O)NC5CC5)c4)cc3c2)c1C [P-2175, N-cyclopropyl-4-[5-[(3,4-dimethyl-1H-pyrazole-5-carbonyl)amino]-1H-pyrrolo[2,3-b]pyridin-2-yl]pyridine-2-carboxamide] | 0.0001 to 1 µM | < 10 µM
COc1ccncc1-c1cc2cc(NC(=O)c3[nH]nc(C)c3C)cnc2[nH]1 [P-2185, N-[2-(4-methoxy-3-pyridyl)-1H-pyrrolo[2,3-b]pyridin-5-yl]-3,4-dimethyl-1H-pyrazole-5-carboxamide] | 0.0001 to 1 µM | < 10 µM
Cc1n[nH]c(C(=O)Nc2cnc3[nH]c(I)cc3c2)c1C [P-2188, N-(2-iodo-1H-pyrrolo[2,3-b]pyridin-5-yl)-3,4-dimethyl-1H-pyrazole-5-carboxamide] | 1 to 10 µM | < 10 µM
Cc1n[nH]c(C(=O)Nc2cnc3[nH]c(-c4ccc(F)nc4)cc3c2)c1C [P-2269, N-[2-(6-fluoro-3-pyridyl)-1H-pyrrolo[2,3-b]pyridin-5-yl]-3,4-dimethyl-1H-pyrazole-5-carboxamide] | 0.0001 to 1 µM | < 10 µM
Cc1n[nH]c(C(=O)Nc2cnc3[nH]c(-c4ccc(F)cc4)cc3c2)c1F [P-2275, 4-fluoro-N-[2-(4-fluorophenyl)-1H-pyrrolo[2,3-b]pyridin-5-yl]-3-methyl-1H-pyrazole-5-carboxamide] | 0.0001 to 1 µM | < 10 µM
Cc1n[nH]c(C(=O)Nc2cnc3[nH]c(-c4cccc(C(=O)NCC(C)C)c4)cc3c2)c1C [P-2276, N-[2-[3-(isobutylcarbamoyl)phenyl]-1H-pyrrolo[2,3-b]pyridin-5-yl]-3,4-dimethyl-1H-pyrazole-5-carboxamide] | 0.0001 to 1 µM | < 10 µM
Cc1nc(F)ccc1-c1cc2cc(NC(=O)c3[nH]nc(C)c3C)cnc2[nH]1 [P-2283, N-[2-(6-fluoro-2-methyl-3-pyridyl)-1H-pyrrolo[2,3-b]pyridin-5-yl]-3,4-dimethyl-1H-pyrazole-5-carboxamide] | 0.0001 to 1 µM | < 10 µM
Cc1c(C(F)F)n[nH]c1C(=O)Nc1cnc2[nH]c(-c3ccc(F)cc3)cc2c1 [P-2287, 3-(difluoromethyl)-N-[2-(4-fluorophenyl)-1H-pyrrolo[2,3-b]pyridin-5-yl]-4-methyl-1H-pyrazole-5-carboxamide] | 0.0001 to 1 µM | < 10 µM
O=C(Nc1cnc2[nH]c(I)cc2c1)c1cccc2n[nH]cc12 [P-2288, N-(2-iodo-1H-pyrrolo[2,3-b]pyridin-5-yl)-2H-indazole-4-carboxamide] | 1 to 10 µM | < 10 µM

Source: patent publication US10301280B2 (Plexxikon Inc., priority 2012, dated 2019)
